# Biological target: human PAD4 (hPAD4) (Homo sapiens, UniProt Q9UM07)
# Test: RFMS human PAD4 functional assay (rapid-fire mass spectrum)
# Assay type: biochemical
# Settings: 5 nM hPAD4 enzyme, 250 μM BAEE, 50 μM Calcium; 30 min preincubation, 90 min reaction at 37° C.
# Summary of the method: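 PAD4 (10 nM) preincubated 30 min with compound (top final 50 μM), then BAEE substrate added in pH 7.5 HEPES buffer with DTT, 50 μM calcium, TPEN; 90 min at 37° C. After TCA quench, citrulline derivatized with phenyl glyoxal (4 mM final, 30 min, 37° C) and quantified by RapidFire MS against internal standard.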
# Sequence of human PAD4 (hPAD4) (Q9UM07 whole entry): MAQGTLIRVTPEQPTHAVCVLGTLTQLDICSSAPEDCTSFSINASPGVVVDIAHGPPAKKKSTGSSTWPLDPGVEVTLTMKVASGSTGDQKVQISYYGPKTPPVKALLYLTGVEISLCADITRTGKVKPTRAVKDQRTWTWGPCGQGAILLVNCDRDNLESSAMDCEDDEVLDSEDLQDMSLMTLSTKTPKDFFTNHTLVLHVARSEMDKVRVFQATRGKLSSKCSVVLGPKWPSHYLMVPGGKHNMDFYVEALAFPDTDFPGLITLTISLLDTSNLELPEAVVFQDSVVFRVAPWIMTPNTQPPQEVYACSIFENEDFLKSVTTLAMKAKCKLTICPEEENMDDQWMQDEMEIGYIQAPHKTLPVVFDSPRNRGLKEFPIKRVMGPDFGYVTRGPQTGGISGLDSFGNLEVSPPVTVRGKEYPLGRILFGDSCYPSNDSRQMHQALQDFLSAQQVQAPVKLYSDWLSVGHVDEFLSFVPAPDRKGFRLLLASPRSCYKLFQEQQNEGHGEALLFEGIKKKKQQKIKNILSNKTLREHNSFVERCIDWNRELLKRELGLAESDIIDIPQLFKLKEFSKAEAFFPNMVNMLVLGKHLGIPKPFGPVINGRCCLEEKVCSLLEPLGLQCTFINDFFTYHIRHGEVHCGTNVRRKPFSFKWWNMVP
row,Compound,IC50
1,"COc1cc(C(=O)N2C[C@H]3CC[C@@H]2[C@@H]3N)cc2nc(-c3cc4cccnc4n3CC3CC3)n(CC3CN(c4nc(O)ncc4C#N)C3)c12 [Example 79, 4-[3-({5-[(1R,4R,7R)-7-amino-2-azabicyclo[2.2.1]heptane-2-carbonyl]-2-[1-(cyclopropylmethyl)-1H-pyrrolo[2,3-b]pyridin-2-yl]-7-methoxy-1H-1,3-benzodiazol-1-yl}methyl)azetidin-1-yl]-2-hydroxypyrimidine-5-carbonitrile]",400 nM
2,"COc1cc(C(=O)N2C[C@H](N)CC[C@@H]2C)cc2nc(-c3cc4cccnc4n3CC3CC3)n(CC3CN(C(=O)c4ccccc4)C3)c12 [Example 470, (3R,6S)-1-{1-[(1-benozylazetidin-3-yl)methyl]-2-[1-(cyclopropylmethyl)-1H-pyrrolo[2,3-b]pyridin-2-yl]-7-methoxy-1H-1,3-benzodiazole-5-carbonyl}-6-methylpiperidin-3-amine]",177 nM
3,"COc1cc(C(=O)N2C[C@H]3CC[C@@H]2[C@@H]3N)cc2nc(-c3cc4cccnc4n3CC3CC3)n(C3CCN(C(=O)c4ccnc(C#N)c4)CC3)c12 [Example 240, 4-(4-{5-[(1R,4R,7R)-7-amino-2-azabicyclo[2.2.1]heptane-2-carbonyl]-2-[1-(cyclopropylmethyl)-1H-pyrrolo[2,3-b]pyridin-2-yl]-7-methoxy-1H-1,3-benzodiazol-1-yl}piperidine-1-carbonyl)pyridine-2-carbonitrile]",1440 nM
4,"COc1cc(C(=O)N2C[C@H]3CC[C@@H]2[C@@H]3N)cc2nc(-c3cc4cccnc4n3CC3CC3)n(CC3CN(C(=O)c4cnc(C#N)nc4)C3)c12 [Example 127, 5-[3-({5-[(1R,4R,7R)-7-amino-2-azabicyclo[2.2.1]heptane-2-carbonyl]-2-[1-(cyclopropylmethyl)-1H-pyrrolo[2,3-b]pyridin-2-yl]-7-methoxy-1H-1,3-benzodiazol-1-yl}methyl)azetidine-1-carbonyl]pyrimidine-2-carbonitrile]",109 nM
5,"5-(4-((5-((1R,4R,7R)-7-amino-2-azabicyclo[2.2.1]heptane-2-carbonyl)-2-(1-(cyclopropylmethyl)-1H-pyrrolo[2,3-b]pyridin-2-yl)-7-methoxy-1H-benzo[d]imidazol-1-yl)methyl)piperdine-1-carbonyl)pyrimidine-2-carbonitrile [Example 194]",74 nM
6,"COc1cc(C(=O)N2C[C@H](N)C[C@@H](F)C2)cc2nc(-c3cc4cccnc4n3CC3CC3)n(CC3(F)CN(C(=O)c4ccccc4)C3)c12 [Example 468, (3R,5R)-1-{1-[(1-benzoyl-3-fluoroazetidin-3-yl)methyl]-2-[1-(cyclopropylmethyl)-1H-pyrrolo[2,3-b]pyridin-2-yl]-7-methoxy-1H-1,3-benzodiazole-5-carbonyl}-5-fluoropiperidin-3-amine]",99 nM
7,"COc1cc(C(=O)N2CC3CCC2[C@@H]3N)cc2nc(-c3cc4ccccc4n3CC3CC3)n(CCc3cnn(C)c3)c12 (stereo partly drawn) [Example 511, (7R)-2-{2-[1-(cyclopropylmethyl)-1H-indol-2-yl]-7-methoxy-1-[2-(1-methyl-1H-pyrazol-4-yl)ethyl]-1H-l,3-benzodiazole-5-carbonyl}-2-azabicyclo[2.2.1]heptan-7-amine]",338 nM
8,"COc1cc(C(=O)N2CC3CCC2[C@@H]3N)cc2nc(-c3cc4ccccc4n3CC3CC3)n(Cc3cnn(-c4ccc(C)cn4)c3)c12 (stereo partly drawn) [Example 404, (7R)-2-{2-[1-(cyclopropylmethyl)-1H-indol-2-yl]-7-methoxy-1-{[1-(5-methylpyridin-2-yl)-1H-pyrazol-4-yl]methyl)-1H-1,3-benzodiazole-5-carbonyl}-2-azabicyclo[2.2.1]heptan-7-amine]",66 nM
9,"COc1cc(C(=O)N2C[C@H](N)C[C@@H](F)C2)cc2nc(-c3cc4ccccc4n3CC3CC3)n(Cc3cn(C)nc3C)c12 [Example 512, (3R,5R)-1-{2-[1-(cyclopropylmethyl)-1H-indol-2-yl]-1-[(1,3-dimethyl-1H-pyrazol-4-yl)methyl]-7-methoxy-1H-1,3-benzodiazole-5-carbonyl}-5-fluoropiperidin-3-amine]",373 nM
10,"COc1cc(C(=O)N2C[C@H]3CC[C@@H]2[C@@H]3N)cc2nc(-c3cc4ccccc4n3C)n(CC3CN(c4ncccn4)C3)c12 [Example 48, (1R,4R,7R)-2-[7-methoxy-2-(1-methyl-1H-indol-2-yl)-1-{[1-(pyrimidin-2-yl)azetidin-3-yl]methyl}-1H-1,3-benzodiazole-5-carbonyl]-2-azabicyclo[2.2.1]heptan-7-amine]",122 nM
11,"COc1cc(C(=O)N2CC3CCC2[C@@H]3N)cc2nc(-c3cc4ccccc4n3CC3CC3)n(CC3CCS(=O)(=O)C3)c12 (stereo partly drawn) [Example 264, ((7R)-7-amino-2-azabicyclo[2.2.1]heptan-2-yl)(2-(1-(cyclopropylmethyl)-1H-indol-2-yl)-1-((1,1-dioxidotetrahydrothiophen-3-yl)methyl)-7-methoxy-1H-benzo[d]imidazol-5-yl)methanone]",57 nM
12,"Cn1cc(Cn2c(-c3cc4ccccc4n3CC3CC3)nc3cc(C(=O)N4C[C@H](N)C[C@@H](F)C4)cc(Cl)c32)cn1 [Example 517, (3R,5R)-1-{7-chloro-2-[1-(cyclopropylmethyl)-1H-indol-2-yl]-1-[(1-methyl-1H-pyrazol-4-yl)methyl]-1H-1,3-benzodiazole-5-carbonyl}-5-fluoropiperidin-3-amine]",590 nM
13,"COc1cc(C(=O)N2C[C@H]3CC[C@@H]2[C@@H]3N)cc2nc(-c3cc4ccccc4n3CC3CC3)n(Cc3csc(C)n3)c12 [Example 269, (1R,4R,7R)-2-{2-[1-(cyclopropylmethyl)-1H-indol-2-yl]-7-methoxy-1-[(2-methyl-1,3-thiazol-4-yl)methyl]-1H-1,3-benzodiazole-5-carbonyl}-2-azabicyclo[2.2.1]heptan-7-amine]",127 nM
14,"COc1cc(C(=O)N2C[C@H](N)C[C@@H](F)C2)cc2nc(-c3cc4ccccc4n3CC3CC3)n(CC3CN(c4cncc(C#N)c4)C3)c12 [Example 34, 5-[3-({5-[(3R,5R)-3-amino-5-fluoropiperidine-1-carbonyl]-2-[1-(cyclopropylmethyl)-1H-indol-2-yl]-7-methoxy-1H-1,3-benzodiazol-1-yl}methyl)azetidin-1-yl]pyridine-3-carbonitrile]",88 nM

# These reach a lower IC50. Values come first.
row,IC50,Compound
1,47 nM,"COc1cc(C(=O)N2C[C@H]3CC[C@@H]2[C@@H]3N)cc2nc(-c3cc4cccnc4n3CC3CC3)n(CC3CN(c4nccnc4C#N)C3)c12 [Example 15, 3-[3-({5-[(1R,4R,7R)-7-amino-2-azabicyclo[2.2.1]heptane-2-carbonyl]-2-[1-(cyclopropylmethyl)-1H-pyrrolo[2,3-b]pyridin-2-yl]-7-methoxy-1H-1,3-benzodiazol-1-yl}methyl)azetidin-1-yl]pyrazine-2-carbonitrile]"
2,41 nM,"COc1cc(C(=O)N2C[C@H](N)C[C@@H](F)C2)cc2nc(-c3cc4cccnc4n3CC3CC3)n(Cc3cnn(-c4cccnc4O)c3)c12 [Example 382, 3-[4-({5-[(3R,5R)-3-amino-5-fluoropiperidine-1-carbonyl]-2-[1-(cyclopropylmethyl)-1H-pyrrolo[2,3-b]pyridin-2-yl]-7-methoxy-1H-1,3-benzodiazol-1-yl}methyl)-1H-pyrazol-1-yl]pyridin-2-ol]"
3,40 nM,"COc1cc(C(=O)N2C[C@H]3CC[C@@H]2[C@@H]3N)cc2nc(-c3cc4ccccc4n3CC3CC3)n(CC3CN(c4cncc(C#N)c4)C3)c12 [Example 67, 5-[3-({5-[(1R,4R,7R)-7-amino-2-azabicyclo[2.2.1]heptane-2-carbonyl]-2-[1-(cyclopropylmethyl)-1H-indol-2-yl]-7-methoxy-1H-1,3-benzodiazol-1-yl}methyl)azetidin-1-yl]pyridine-3-carbonitrile]"
4,35 nM,"COc1cc(C(=O)N2CC3CCC2[C@@H]3N)cc2nc(-c3cc4ccccc4n3CC3CC3)n(CC3CN(C(=O)c4cnc(Cl)s4)C3)c12 (stereo partly drawn) [Example 414, (7R)-2-(1-{[1-(2-chloro-1,3-thiazole-5-carbonyl)azetidin-3-yl]methyl}-2-[1-(cyclopropylmethyl)-1H-indol-2-yl]-7-methoxy-1H-1,3-benzodiazole-5-carbonyl)-2-azabicyclo[2.2.1]heptan-7-amine]"
5,30 nM,"COc1cc(C(=O)N2CC3CCC2[C@@H]3N)cc2nc(-c3cc4cccnc4n3CC3CC3)n(CC3CN(C(=O)c4c(F)cccc4F)C3)c12 (stereo partly drawn) [Example 431, (7R)-2-{2-[1-(cyclopropylmethyl)-1H-pyrrolo[2,3-b]pyridin-2-yl]-1-{[1-(2,6-difluorobenzoyl)azetidin-3-yl]methyl}-7-methoxy-1H-1,3-benzodiazole-5-carbonyl}-2-azabicyclo[2.2.1]heptan-7-amine]"
6,25 nM,"COc1cc(C(=O)N2C[C@H]3CC[C@@H]2[C@@H]3N)cc2nc(-c3cc4cccnc4n3CC3CC3)n(C[C@H]3CCN(c4ccnc(C)n4)C3)c12 [Example 208, ((1R,4R,7R)-7-amino-2-azabicyclo[2.2.1]heptan-2-yl)(2-(1-(cyclopropylmethyl)-1H-pyrrolo[2,3-b]pyridin-2-yl)-7-methoxy-1-(((S)-1-(2-methylpyrimidin-4-yl)pyrrolidin-3-yl)methyl)-1H-benzo[d]imidazol-5-yl)methanone]"
7,23 nM,"COc1cc(C(=O)N2C[C@H]3CC[C@@H]2[C@@H]3N)cc2nc(-c3cc4ccccc4n3CC3CC3)n(CC3CN(c4nccnc4C#N)C3)c12 [Example 64, 3-[3-({5-[(1R,4R,7R)-7-amino-2-azabicyclo[2.2.1]heptane-2-carbonyl]-2-[1-(cyclopropylmethyl)-1H-indol-2-yl]-7-methoxy-1H-1,3-benzodiazol-1-yl}methyl)azetidin-1-yl]pyrazine-2-carbonitrile]"
8,20 nM,"COc1cc(C(=O)N2C[C@H]3CC[C@@H]2[C@@H]3N)cc2nc(-c3cc4ccccc4n3CC3CC3)n(CC3CN(C(=O)c4ccc(C(=O)O)cc4)C3)c12 [Example 151, 4-[3-({5-[(1R,4R,7R)-7-amino-2-azabicyclo[2.2.1]heptane-2-carbonyl]-2-[1-(cyclopropylmethyl)-1H-indol-2-yl]-7-methoxy-1H-1,3-benzodiazol-1-yl}methyl)azetidine-1-carbonyl]benzoic acid]"
